Reference: ChEMBL document CHEMBL5724914, “Linking interpersonal differences in gut microbiota composition and drug biotransformation activity” (2024)

Assays:
[1] = (§1) The drug is tested on Z-013 corresponding to rabbit gut metagenome with ENA study accession number: PRJEB37062 and ENA sample accession number: ERS12561813 for biotransformation under anaerobic condition. The drug concentrations were measured over 9 timepoints collected between 0 and 24 hours of incubation by liquid-chromatography-coupled mass spectrometry (LC–MS); conditions: 2 µM
[2] = as §1, with “Z-010” for “Z-013”, “to” for “to rabbit gut”, “ERS12561810” for “ERS12561813”; conditions: 2 µM
[3] = as §1, with “Z-004” for “Z-013”, “to” for “to rabbit gut”, “ERS12561804” for “ERS12561813”; conditions: 2 µM
[4] = as §1, with “WLS-220” for “Z-013”, “human” for “rabbit”, “ERS12561769” for “ERS12561813”; conditions: 2 µM
[5] = as §1, with “WLS-170” for “Z-013”, “human” for “rabbit”, “ERS12561762” for “ERS12561813”; conditions: 2 µM
[6] = as §1, with “WLS-069” for “Z-013”, “human” for “rabbit”, “ERS12561748” for “ERS12561813”; conditions: 2 µM
[7] = as §1, with “WLS-010” for “Z-013”, “human” for “rabbit”, “ERS12561743” for “ERS12561813”; conditions: 2 µM
[8] = as §1, with “WLS-006” for “Z-013”, “human” for “rabbit”, “ERS12561741” for “ERS12561813”; conditions: 2 µM
[9] = human gut metagenome, 24 h, 2 µM
[10] = human gut metagenome, 24 h, 2 µM; remark: listed apart in the source
[11] = human gut metagenome, 24 h, 2 µM; remark: listed apart in the source
[12] = human gut metagenome, 24 h, 2 µM; remark: listed apart in the source
[13] = human gut metagenome, 24 h, 2 µM; remark: listed apart in the source
[14] = human gut metagenome, 24 h, 2 µM; remark: listed apart in the source
[15] = human gut metagenome, 24 h, 2 µM; remark: listed apart in the source
[16] = human gut metagenome, 24 h, 2 µM; remark: listed apart in the source
[17] = human gut metagenome, 24 h, 2 µM; remark: listed apart in the source
[18] = human gut metagenome, 24 h, 2 µM; remark: listed apart in the source
[19] = human gut metagenome, 24 h, 2 µM; remark: listed apart in the source
[20] = human gut metagenome, 24 h, 2 µM; remark: listed apart in the source
Also: call rule not given here.

| Structure (SMILES) | Bacterial Biotransformation [1] | Bacterial Biotransformation [2] | Bacterial Biotransformation [3] | Bacterial Biotransformation [4] | Bacterial Biotransformation [5] | Bacterial Biotransformation [6] | Bacterial Biotransformation [7] | Bacterial Biotransformation [8] | Bacterial Biotransformation [9] | Bacterial Biotransformation [10] | Bacterial Biotransformation [11] | Bacterial Biotransformation [12] | Bacterial Biotransformation [13] | Bacterial Biotransformation [14] | Bacterial Biotransformation [15] | Bacterial Biotransformation [16] | Bacterial Biotransformation [17] | Bacterial Biotransformation [18] | Bacterial Biotransformation [19] | Bacterial Biotransformation [20] |
| --- | --- | --- | --- | --- | --- | --- | --- | --- | --- | --- | --- | --- | --- | --- | --- | --- | --- | --- | --- | --- |
| CC(C)(C)NC[C@H](O)COc1ccccc1C1CCCC1.CC(C)(C)NC[C@H](O)COc1ccccc1C1CCCC1.O=S(=O)(O)O [PENBUTOLOL SULFATE] | Compound NOT metabolized | Compound metabolized | Compound metabolized | Compound metabolized | Compound metabolized | Compound metabolized | Compound metabolized | Compound metabolized | Compound metabolized | Compound metabolized | Compound metabolized | Compound metabolized | Compound metabolized | Compound metabolized | Compound metabolized | Compound metabolized | Compound metabolized | Compound metabolized | Compound metabolized | Compound metabolized |
| CC(=O)OCC(=O)[C@@]12N=C(C)O[C@@H]1C[C@H]1[C@@H]3CCC4=CC(=O)C=C[C@]4(C)[C@H]3[C@@H](O)C[C@@]12C [DEFLAZACORT] | Compound metabolized | Compound metabolized | Compound metabolized | Compound metabolized | Compound metabolized | Compound metabolized | Compound metabolized | Compound metabolized | Compound metabolized | Compound metabolized | Compound metabolized | Compound metabolized | Compound metabolized | Compound metabolized | Compound metabolized | Compound metabolized | Compound metabolized | Compound metabolized | Compound metabolized | Compound metabolized |
